Cl.N=C(N)Nc1ccc(C(=O)O)cc1
solubility (mole fraction) (in ethanol, 294.95 K): 0.00291
solubility (mole fraction) (in ethanol, 300.05 K): 0.00316
solubility (mole fraction) (in ethanol, 305.95 K): 0.00343
solubility (mole fraction) (in ethanol, 310.25 K): 0.00387
solubility (mole fraction) (in ethanol, 315.25 K): 0.0042
solubility (mole fraction) (in ethanol, 320.25 K): 0.00478
solubility (mole fraction) (in ethanol, 325.55 K): 0.00514
solubility (mole fraction) (in ethanol, 330.65 K): 0.00558
solubility (mole fraction) (in isopropanol, 296.35 K): 0.0008
solubility (mole fraction) (in isopropanol, 301.75 K): 0.00106
solubility (mole fraction) (in isopropanol, 307.55 K): 0.00127
solubility (mole fraction) (in isopropanol, 312.95 K): 0.00149
solubility (mole fraction) (in isopropanol, 317.35 K): 0.00158
solubility (mole fraction) (in isopropanol, 321.35 K): 0.0017
solubility (mole fraction) (in isopropanol, 325.15 K): 0.00186
solubility (mole fraction) (in isopropanol, 328.25 K): 0.00201
solubility (mole fraction) (in methanol, 297.95 K): 0.0118
solubility (mole fraction) (in methanol, 302.45 K): 0.0128
solubility (mole fraction) (in methanol, 307.45 K): 0.0143
solubility (mole fraction) (in methanol, 312.95 K): 0.0155
solubility (mole fraction) (in methanol, 317.45 K): 0.017
solubility (mole fraction) (in methanol, 321.25 K): 0.0181
solubility (mole fraction) (in methanol, 324.85 K): 0.0192
solubility (mole fraction) (in methanol, 328.55 K): 0.0203
solubility (mole fraction) (in n-butanol, 293.25 K): 0.00103
solubility (mole fraction) (in n-butanol, 296.85 K): 0.00124
solubility (mole fraction) (in n-butanol, 300.05 K): 0.00137
solubility (mole fraction) (in n-butanol, 303.15 K): 0.00149
solubility (mole fraction) (in n-butanol, 307.55 K): 0.00163
solubility (mole fraction) (in n-butanol, 314.75 K): 0.00182
solubility (mole fraction) (in n-butanol, 320.15 K): 0.00194
solubility (mole fraction) (in n-butanol, 327.15 K): 0.00216
solubility (mole fraction) (in n-pentanol, 292.05 K): 0.00042
solubility (mole fraction) (in n-pentanol, 296.55 K): 0.00071
solubility (mole fraction) (in n-pentanol, 301.75 K): 0.0008
solubility (mole fraction) (in n-pentanol, 310.05 K): 0.00096
solubility (mole fraction) (in n-pentanol, 316.75 K): 0.00103
solubility (mole fraction) (in n-pentanol, 322.95 K): 0.00114
solubility (mole fraction) (in n-pentanol, 327.95 K): 0.00121
solubility (mole fraction) (in n-pentanol, 334.15 K): 0.00136
solubility (mole fraction) (in n-propanol, 295.05 K): 0.00368
solubility (mole fraction) (in n-propanol, 300.75 K): 0.00436
solubility (mole fraction) (in n-propanol, 305.75 K): 0.00495
solubility (mole fraction) (in n-propanol, 309.95 K): 0.00564
solubility (mole fraction) (in n-propanol, 314.55 K): 0.00633
solubility (mole fraction) (in n-propanol, 319.35 K): 0.00716
solubility (mole fraction) (in n-propanol, 322.85 K): 0.00753
solubility (mole fraction) (in n-propanol, 327.75 K): 0.00815
solubility (mole fraction) (in water, 298.05 K): 0.00532
solubility (mole fraction) (in water, 304.55 K): 0.00685
solubility (mole fraction) (in water, 309.95 K): 0.00884
solubility (mole fraction) (in water, 314.85 K): 0.0108
solubility (mole fraction) (in water, 318.55 K): 0.0129
solubility (mole fraction) (in water, 323.55 K): 0.0155
solubility (mole fraction) (in water, 328.85 K): 0.018
solubility (mole fraction) (in water, 333.65 K): 0.0218

— BigSolDB 2.1
